Experimental data from patent US20220017572A1, “GEMINOID LIPOPEPTIDE COMPOUNDS AND THEIR USES” (Erasmus University Medical Center Rotterdam, priority 2016, published 2022).
Residues, ends and D or L forms follow the SMILES beside them.

Assays:
DENV-2/NGC = test: Dengue replication (plaque) assay in VERO cells; type: cell-based, Dengue virus
Method: 1×10^6 Vero E6 cells were plated per well into a 6-wells plate and incubated overnight at 37° C. Next day, the DENV-2/NGC virus stock was diluted to 10^4 TICD50/ml, 10^3 TICD50/ml, 10^2 TICD50/ml and 1 ml of the respective virus dilutions was added to each well. Wells contained approximately 80% confluent monolayers of Vero cells. After an incubation period of 1 hour at 37° C., cells were washed twice with medium (DMEM) and medium containing 2% methyl cellulose was added to the wells. To this medium C16-KAK-C16 10 uM was added (W) in DMSO, or an equivalent amount of DMSO (0.05%) was added (W/O). Plate was incubated at 37° C. for two days. Methyl cellulose overlays were removed and cells were fixed with absolute ethanol. Cells were subsequently incubated with specific DENY monoclonal antibody for 1 hour at 37° C., followed by incubation with HRPO-labeled rabbit-anti mouse conjugate. Positive plaques were counted after incubation with AEC substrate chromogen.
The experiment was performed as described in the legend of FIG. 8 at a viral dose of 10^3 TICD50/ml in all plates.
C16-KAK-C16 was subsequently tested in a standard Dengue replication (plaque) assay in VERO cells (FIG. 8). […] In a separate experiment this was confirmed with a constant intermediate viral load of and different concentrations of C16-KAK-C16 (FIG. 9)

dengue 2 protease = molecular target: T1, dengue 2 protease (Dengue virus type 2, UniProt P14340); test: Dengue 2 protease inhibition, hydrolysis of Z-RR-MCA; type: biochemical, dengue 2 virus; set-up: unit not given here; conditions: 30 μM of inhibitor; 10 μM Z-RR-MCA, pH 9.0, 37° C.; initial activity in UAF/min
T1 construct: The active site of the dengue protease is in the N-terminal part of NS3

[1] = molecular target: T2, Dengue NS3-NS2B peptidase (Dengue virus type 2, UniProt P14340); test: Dengue NS3-NS2B peptidase hydrolysis of Abz-AKRRSQ-EDDnp; type: biochemical; conditions: 50 mM Tris-HCl pH 9.0, FIG. 5
T2 construct: The active site of the dengue protease is in the N-terminal part of NS3
Method: FIG. 5A, FIG. 5B and FIG. 5C show Dengue NS3-NS2B peptidase hydrolysis of Abz-AKRRSQ-EDDnp (SEQ ID NO:1) in 50 mM Tris-HCl pH 9.0. FIG. 5A Inhibitors: (◯) C16-KAAK-C16 (SEQ ID NO:42), (▪)C16-KAK-C16, (▴)C16-KGGK-C16(SEQ ID NO:41). FIG. 5B Substrates: (◯) Abz AKRRSQ-EDDnp (SEQ ID NO:1) and (●) Suc AAPF-MCA with different concentrations of C16-KGGK-C16 (SEQ ID NO:41). FIG. 5C Followed in time at different C16-KGGK-C16 (SEQ ID NO:41) concentrations.
FIG. 6A and FIG. 6B show Dengue NS3-NS2B peptidase hydrolysis of Abz AKRRSQ-EDDnp (SEQ ID NO:1) in the presence of C16-KK-C16 (KR), C16-KAK-C16 (KAK), C16-KAAK-C16 (KAAK; (SEQ ID NO:42)), C16-KAAAAK-C16 (KAAAAK; (SEQ ID NO:53)), C16-KGK-C16 (KOK), C16-KGGK-C16 (KOOK; (SEQ ID NO:41)), and C16-KGGGK-C16 (KGGGK; (SEQ ID NO:40)). “◯” means enzyme activity without inhibitor. FIG. 6A E+K means that the inhibitor+enzyme were pre-incubated for 0, 15 and 30 min and then the substrate was added. FIG. 6B K means that the inhibitor was pre-incubated for 0, 15 and 30 min and then the enzyme and substrate were added.
The best substrate for dengue protease is Abz-AKRR↓SQ-EDDnp (SEQ ID NO:1) [Gouvea et al., 2007]. […] Geminoids with either G or A are inhibitors of Dengue protease, but which is the better inhibitor does depend on the nature of the substrates (compare FIG. 5a and Table 1). […]

T1 sequence (P14340 1476-1653): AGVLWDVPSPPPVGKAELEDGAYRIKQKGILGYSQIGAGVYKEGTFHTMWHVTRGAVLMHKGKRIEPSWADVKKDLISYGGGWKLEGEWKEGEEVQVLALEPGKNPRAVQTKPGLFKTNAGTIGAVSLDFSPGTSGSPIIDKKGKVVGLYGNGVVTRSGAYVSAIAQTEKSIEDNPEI
T2 sequence (P14340 1476-1653): as above

`CCCCCCCCCCCCCCCCNC(=O)[C@H](CCCCN)NC(=O)[C@H](C)NC(=O)[C@H](CCCCN)NC(=O)CCCCCCCCCCCCCCC` [C16-KAK-C16] was tested, and the “inhibition of plaque formation” value (DENV-2/NGC; 10 uM, Vero E6 cells, DENV-2/NGC 10^2-10^4 TICD50/ml, two days, depending on the viral load) was “up to 90%”, the “virus replication (in words)” value (DENV-2/NGC; VERO cells, DENV-2/NGC) was “significant reduction of virus replication” and the Activity with inhibitors (dengue 2 protease) was 0.

For `CCCCCCCCCCCCCCCCNC(=O)[C@H](CCCCN)NC(=O)CNC(=O)CNC(=O)[C@H](CCCCN)NC(=O)CCCCCCCCCCCCCCC` [C16-KGGK-C16, C15H31CO-KGGK-NH—C16H33] (HELM PEPTIDE1{[CCCCCCCCCCCCCCCC(=O)[*:2]].K.G.G.K.[CCCCCCCCCCCCCCCCN[*:1]]}$$$$V2.0), the “inhibition of Dengue protease with substrate Abz-AKRRSQ-EDDnp (in words)” value [1] was “does not depend on the choice of substrate”.
